# Data reported in patent publication US12138256B2, “Treatment of cardiopulmonary disorders” (Bayer Aktiengesellschaft, priority 2021, dated 2024).
# Values joined by “and” are separate entries in the source; they are usually repeats but may differ in a detail not shown here. Identical values can stand only once.
# Experiments:
# [1] = test system: thromboxane analog U46619 induced PAH in minipigs; experiment: Haemodynamics (PAP, BP) in the anesthetized thromboxane challenged PAH minipig after inhaled (nebulized) application (C-2.1); assay type: in vivo, Göttingen minipig; settings: 10 μg/kg nominal dose, inhaled, n = 3
# Experimental: Experiments were carried out in anesthetized Göttingen minipigs, anesthetized rats and conscious, telemetrically instrumented dogs. Acute pulmonary hypertension was induced for example by infusion of a thromboxane A2 analogon, by acute hypoxia treatment or hypoxia treatment over a number of weeks and/or by administration of monocrotaline. Test substances were applied via nebulization using the Nebutec® or Aeroneb® Pro nebulizer system, and/or by means of powder and/or solution applicators for experimental intratracheal administration (Liquid MicroSprayer®, Dry Powder Insufflator™, MicroSprayer®, Penn-Century Inc., Wyndmoor, PA, USA) or after solid nebulization inserted into the inspiration arm of the ventilation. Compounds were employed as solids or solutions depending on the molecular structure and the technical possibility depending on the experiment. The haemodynamic signals were recorded and evaluated by means of pressure transducers/amplifiers (Combitransducer B. Braun, Melsungen, Germany or CardioMEMS Inc., Atlanta, GA, USA) and Ponemah® or CardioMems® as data aquisition software. After long-term experiments (for example monocrotaline rat), it is also possible to carry out a histological evaluation.
# Healthy Gottingen Minipigs® Ellegaard (Ellegaard, Denmark) of both sexes and having a weight of 2-6 kg were used. The animals were sedated by i.m. administration of about 25 mg/kg ketamine and about 10 mg/kg azaperone. Anaesthesia was initiated by i.v. administration of about 2 mg/kg ketamine and about 0.3 mg/kg midazolam. Maintenance of anaesthesia was by i.v. administration of about 7.5-30 mg/kg/h ketamine and about 1-4 mg/kg/h midazolam (rate of infusion 1-4 ml/kg/h) and about 150 μg/kg/h pancuronium bromide (for example Pancuronium-Actavis). After intubation, the animals were ventilated by the ventilator at a constant respiratory volume (10-12 ml/kg, 35 breaths/min; Avea®, Viasys Healthcare, USA, or Engstrom Carestation, GE Healthcare, Freiburg, Germany) such that an end-tidal CO2 concentration of about 5% was achieved. Ventilation was performed with room air, enriched with about 40% oxygen (normoxia). For the measurement of the haemodynamic parameters such as pulmonary arterial pressure (PAP), blood pressure (BP) and heart rate (HR), catheters were inserted into the carotid artery to measure the blood pressure, and a Swan-Ganz® catheter was introduced in a flow-directed manner via the jugular vein into the pulmonary artery. The haemodynamic signals were recorded and evaluated by means of pressure transducers (Combitransducer, B. Braun, Melsungen, Germany)/amplifiers and Ponemah® as data aquisition software.
# After the instruments have been placed into the animals, continuous infusion of a thromboxane A2 analog was initiated to increase the pulmonary arterial pressure. […] D0400, or Cayman Chemical Company, cat. no. 16440), dissolved in physiological saline, were infused to achieve an increase of the mean pulmonary arterial pressure to values of over 25 mmHg. 30 minutes after the start of the infusion, a plateau was reached, and the experiment was started.
# The test substances were administered as i.v. infusion or by inhalation. For the preparation of the solution for inhalation, the following procedure was adopted: For an animal having a weight of 4 kg, to prepare the stock solution (300 μg/kg), 1.2 mg of the test compound were weighed out and dissolved in a total volume of 3 ml (1% DMSO, 99% 0.2% strength citric acid solution, 1 N aqueous sodium hydroxide solution to adjust the pH to 8). The solution was then diluted to the concentration employed using 0.2% strength citric acid which had been adjusted to pH 8 beforehand with aqueous sodium hydroxide solution. In each test, 3 ml of the solution of test compound per 4 kg animal were nebulized in the inhalation arm of the respiratory circuit using the Aeroneb® Pro nebulizer system. The mean nebulization time was about 7 min from the start of the nebulization.
# [2] = test system: anesthetized PAH minipigs; experiment: PAH minipig model: intratracheal application of dry powder formulations and different hydrates (PennCentury insufflator); assay type: in vivo, Göttingen minipig; settings: for BP (mean) / PAP(mean) / BP % changes vs. prevalues / PAP % changes vs. prevalues: 375 μg/kg i.t.; for BP (mean) / PAP(mean): absolute values; for BP % changes vs. prevalues / PAP % changes vs. prevalues: each animal
# Description: After characterization of the effects of comparative example 11 after nebulization of compound solutions, in a further step the effects of crystalline forms of comparative example 11, e.g. sesquihydrate, e.g. example 6e on PAP and BP after inhaled application of different dry powder lactose formulations (table C2.1.8) were studied in anesthetized PAH minipigs.
# As reference pure Lactose vehicle was applied in the beginning of each experiment.
smiles,measurement,setting,value
CC#CCC(C)[C@H](O)/C=C/[C@@H]1[C@H]2C/C(=C/CCCC(=O)O)C[C@H]2C[C@H]1O (stereo partly shown) [Ventavis ®],"PAP % changes vs prevalue, mean",[1]; time 0 min,0%
same,"PAP % changes vs prevalue, mean",[1]; time 10 min,−30.3%
same,"PAP % changes vs prevalue, mean",[1]; time 20 min,−20.7%
same,"PAP % changes vs prevalue, mean",[1]; time 30 min,−6.9%
same,"PAP % changes vs prevalue, mean",[1]; time 40 min,1.7%
same,"PAP % changes vs prevalue, mean",[1]; time 50 min,4.9%
"O.O=C(O)c1ccc(CCN(CCc2ccccc2OCc2ccc(-c3ccc(C(F)(F)F)cc3)cc2Cl)[C@H]2CCCc3nc(C(=O)O)ccc32)cc1.O=C(O)c1ccc(CCN(CCc2ccccc2OCc2ccc(-c3ccc(C(F)(F)F)cc3)cc2Cl)[C@H]2CCCc3nc(C(=O)O)ccc32)cc1 [example 6a, (5S)-{[2-(4-Carboxyphenyl)ethyl][2-(2-{[3-chloro-4′-(trifluoromethyl)biphenyl-4-yl]methoxy}phenyl)-ethyl]amino}-5,6,7,8-tetrahydroquinoline-2-carboxylic acid semihydrate]",efficacy with regard to PAP reduction as well as systemic BP reduction,"[2]; 1.5 mg/4 kg (=375 μg/kg) intratracheally, micronized",comparable efficacy
same,BP (mean),[2]; time 0,101 mmHg and 85 mmHg
same,PAP(mean),[2]; time 0,39.6 mmHg and 40.8 mmHg and 38.5 mmHg
same,BP (mean),[2]; time 10,103 mmHg and 83 mmHg and 79 mmHg
same,PAP(mean),[2]; time 10,40.2 mmHg and 41.1 mmHg
same,BP (mean),[2]; time 20,101 mmHg and 83 mmHg and 84 mmHg
same,PAP(mean),[2]; time 20,40.4 mmHg and 41.3 mmHg
same,BP (mean),[2]; time 30,100 mmHg and 81 mmHg and 88 mmHg
same,PAP(mean),[2]; time 30,40.2 mmHg and 41.3 mmHg
same,BP (mean),[2]; time 40,98 mmHg and 81 mmHg and 90 mmHg
same,PAP(mean),[2]; time 40,40.4 mmHg and 41.8 mmHg and 41.0 mmHg
same,BP (mean),[2]; time 50,99 mmHg and 78 mmHg and 89 mmHg
same,PAP(mean),[2]; time 50,40.7 mmHg and 41.7 mmHg and 40.9 mmHg
same,BP % changes vs. prevalues,[2]; time 50,99.6% and 98.4% and 100.6%
same,PAP % changes vs. prevalues,[2]; time 50,99.3% and 98.7% and 98.9%
same,BP (mean),[2]; time 60,100 mmHg and 79 mmHg and 86 mmHg
same,PAP(mean),[2]; time 60,41.2 mmHg and 42.0 mmHg and 40.9 mmHg
same,BP % changes vs. prevalues,[2]; time 60,100.6% and 99.7% and 97.2%
same,PAP % changes vs. prevalues,[2]; time 60,100.7% and 99.4% and 99.2%
same,BP (mean),[2]; time 70,102 mmHg and 78 mmHg and 87 mmHg
same,PAP(mean),[2]; time 70,38.8 mmHg and 40.6 mmHg and 40.1 mmHg
same,BP % changes vs. prevalues,[2]; time 70,102.6% and 98.4% (2×)
same,PAP % changes vs. prevalues,[2]; time 70,94.7% and 96.1% and 97.0%
same,BP (mean),[2]; time 80,102 mmHg and 79 mmHg and 90 mmHg
same,PAP(mean),[2]; time 80,34.1 mmHg and 39.9 mmHg and 37.7 mmHg
same,BP % changes vs. prevalues,[2]; time 80,102.6% and 99.7% and 101.8%
same,PAP % changes vs. prevalues,[2]; time 80,83.4% and 94.5% and 91.2%
same,BP (mean),[2]; time 90,101 mmHg and 81 mmHg and 92 mmHg
same,PAP(mean),[2]; time 90,30.1 mmHg and 37.7 mmHg and 36.6 mmHg
same,BP % changes vs. prevalues,[2]; time 90,101.6% and 102.2% and 104.0%
same,PAP % changes vs. prevalues,[2]; time 90,73.4% and 89.2% and 88.7%
same,BP (mean),[2]; time 100,100 mmHg and 80 mmHg and 95 mmHg
same,PAP(mean),[2]; time 100,28.3 mmHg and 35.9 mmHg and 35.0 mmHg
same,BP % changes vs. prevalues,[2]; time 100,100.6% and 101.0% and 107.4%
same,PAP % changes vs. prevalues,[2]; time 100,69.0% and 85.0% and 84.7%
same,BP (mean),[2]; time 110,99 mmHg and 79 mmHg
same,PAP(mean),[2]; time 110,27.2 mmHg and 34.8 mmHg and 34.0 mmHg
same,BP % changes vs. prevalues,[2]; time 110,99.6% and 99.7% and 111.9%
same,PAP % changes vs. prevalues,[2]; time 110,66.5% and 82.4% and 82.1%
same,BP (mean),[2]; time 120,99 mmHg and 79 mmHg and 96 mmHg
same,PAP(mean),[2]; time 120,26.4 mmHg and 34.1 mmHg and 32.9 mmHg
same,BP % changes vs. prevalues,[2]; time 120,99.6% and 99.7% and 108.6%
same,PAP % changes vs. prevalues,[2]; time 120,64.4% and 80.8% and 79.7%
same,BP (mean),[2]; time 130,98 mmHg and 81 mmHg and 97 mmHg
same,PAP(mean),[2]; time 130,25.7 mmHg and 33.7 mmHg and 31.7 mmHg
same,BP % changes vs. prevalues,[2]; time 130,98.6% and 102.2% and 109.7%
same,PAP % changes vs. prevalues,[2]; time 130,62.8% and 79.9% and 76.7%
same,BP (mean),[2]; time 140,99 mmHg and 82 mmHg and 98 mmHg
same,PAP(mean),[2]; time 140,25.3 mmHg and 33.2 mmHg and 31.3 mmHg
same,BP % changes vs. prevalues,[2]; time 140,99.6% and 103.5% and 110.8%
same,PAP % changes vs. prevalues,[2]; time 140,61.8% and 78.7% and 75.7%
same,BP (mean),[2]; time 150,97 mmHg and 82 mmHg
same,PAP(mean),[2]; time 150,25.0 mmHg and 32.9 mmHg and 30.7 mmHg
same,BP % changes vs. prevalues,[2]; time 150,97.6% and 103.5% and 109.7%
same,PAP % changes vs. prevalues,[2]; time 150,60.9% and 78.0% and 74.3%
same,PAP(mean),[2]; time 160,24.5 mmHg and 32.5 mmHg and 30.2 mmHg
same,BP % changes vs. prevalues,[2]; time 160,96.6% and 102.2% and 109.7%
same,PAP % changes vs. prevalues,[2]; time 160,59.9% and 77.1% and 73.1%
same,BP % changes vs. prevalues,[2]; time 170,95.6% and 99.7% and 107.4%
same,PAP % changes vs. prevalues,[2]; time 170,58.6% and 76.7% and 72.3%
same,BP % changes vs. prevalues,[2]; time 180,94.6% and 99.7% and 106.3%
same,PAP % changes vs. prevalues,[2]; time 180,58.0% and 75.4% and 71.8%
same,BP % changes vs. prevalues,[2]; time 190,94.6% and 108.5% and 105.2%
same,PAP % changes vs. prevalues,[2]; time 190,59.5% and 78.4% and 70.7%
same,BP % changes vs. prevalues,[2]; time 200,92.6% and 107.3% and 104.0%
same,PAP % changes vs. prevalues,[2]; time 200,60.5% and 76.8% and 71.1%
same,BP % changes vs. prevalues,[2]; time 210,90.6% and 102.2% and 102.9%
same,PAP % changes vs. prevalues,[2]; time 210,60.6%
same,BP (mean),[2]; time −10,99 mmHg and 85 mmHg and 86 mmHg
same,PAP(mean),[2]; time −10,38.7 mmHg and 40.6 mmHg
